The source of these data is article PMC6271976, “Inhibition of Human Cytochrome P450 Enzymes by Bacopa monnieri Standardized Extract and Constituents” (Molecules, 2014).

pIC50: −log10 of the molar value. A value given as a limit tells only on which side of the number the result lay.

Series [1] deals with CYP2C9 (Homo sapiens, UniProt P11712). Kind of series: Luminescent P450-Glo recombinant human CYP2C9 inhibition assay. The text has this:
(§1) The inhibitory effects of B. monnieri standardized extract and the constituents bacoside A, bacoside A3, bacopaside II, bacopaside X, bacopasaponin C and bacopaside I on human cytochrome P450 enzyme were examined using an in vitro luminescent assay. The P450-Glo™ substrates are converted by CYP enzymes to a luciferin product that reacts with a Luciferin Detection Reagent to produce light. The amount of light produced is directly proportional to the CYP enzyme activity. The net signals from untreated (added with buffer or solvent) CYP reactions represent total CYP activity (without any inhibition = 100%). […] The test compounds that inhibit CYP enzymes caused a reduction in CYP activity and therefore generated less light/signal.
(§2) The assay was carried out using P450-Glo™ Screening System (Cat.# V9770, V9790, V9880, V9890, V9910) from Promega (Madison, WI, USA). The system includes a membrane preparation containing recombinant human cytochrome P450 (CYP) enzyme, negative control membranes, a luminogenic substrate appropriate for the CYP enzyme, an NADPH regeneration system (containing nicotinamide adenine dinucleotide phosphate (NADP^+), glucose-6-phosphate, magnesium chloride (MgCl2) and glucose-6-phosphate dehydrogenase functioning to initiate and sustain the CYP450 reaction by maintaining a non-limiting NADPH system), reaction buffer, Luciferin Detection Reagent and Luciferin-Free Water. The membranes were prepared from baculovirus-infected insect cells and contained recombinant human CYP enzyme and P450 reductase (and cytochrome b5 for CYP2C9, 2C19 and 3A4). The negative control membranes were devoid of CYP activity. The dried powder of B. monnieri standardized methanolic extract containing 50% bacosides (batch No.: C92352/H) was purchased from Sami Labs Ltd. (Karnataka, India). Bacoside A, bacoside A3, bacopaside II, bacopaside X, bacopasaponin C and bacopaside I were purchased from Chromadex Inc. (Irvine, CA, USA).
(§3) The enzyme assay was performed in 96-well white bottom flat plates (Nunc, Roskilde, Denmark). The concentration of B. monnieri extract was 0.01–1000 µg/mL, and the positive controls and compounds (bacoside A, bacoside A3, bacopaside II, bacopaside X, bacopasaponin C and bacopaside I) were 0.01–100 µM. The concentration of the extracts, compounds and positive controls were prepared at 4× the original concentration. All extracts and compounds were dissolved in dimethyl sulfoxide (DMSO). The organic solvent was kept below 0.25% (v/v) in the incubation mixture. First, 12.5 μL of the 4× test compounds or positive controls (appropriate for each enzyme) were added to the “treated” wells. For the “untreated” (the values from these wells represent total CYP activity) and “minus-P450 control” wells (the values from these wells represent the CYP-independent background luminescence of the assay), 12.5 μL of vehicle (1% DMSO) was added. Then, 12.5 μL of the 4× control reaction mixture (containing membrane preparations devoid of CYP enzymes, the appropriate luminogenic substrate, and potassium phosphate buffer) were added to the minus-P450 control wells, and 12.5 μL of the 4× reaction mixture (containing human CYP membrane preparations, the appropriate luminogenic substrate, and potassium phosphate buffer) were added to all other wells. The plate was pre-incubated at room temperature for 10 min, and then 2× NADPH regeneration system was added to initiate the reaction. After incubation at room temperature for 30 min (45 min for CYP2D6), 50 μL of the reconstituted Luciferin Detection Reagent was added to stop the reaction and generate the luminescent signal. Before reading, the plate was incubated at room temperature for 20 min to stabilize the luminescent signal. The luminescence in all of the samples was measured using an Infinite F200 plate reader (Tecan, Männedorf, Switzerland).

Series [2] concerns the target T1, CYP1A2 (Homo sapiens, UniProt P05177).
T1 sequence (P05177 2-516 limits assumed): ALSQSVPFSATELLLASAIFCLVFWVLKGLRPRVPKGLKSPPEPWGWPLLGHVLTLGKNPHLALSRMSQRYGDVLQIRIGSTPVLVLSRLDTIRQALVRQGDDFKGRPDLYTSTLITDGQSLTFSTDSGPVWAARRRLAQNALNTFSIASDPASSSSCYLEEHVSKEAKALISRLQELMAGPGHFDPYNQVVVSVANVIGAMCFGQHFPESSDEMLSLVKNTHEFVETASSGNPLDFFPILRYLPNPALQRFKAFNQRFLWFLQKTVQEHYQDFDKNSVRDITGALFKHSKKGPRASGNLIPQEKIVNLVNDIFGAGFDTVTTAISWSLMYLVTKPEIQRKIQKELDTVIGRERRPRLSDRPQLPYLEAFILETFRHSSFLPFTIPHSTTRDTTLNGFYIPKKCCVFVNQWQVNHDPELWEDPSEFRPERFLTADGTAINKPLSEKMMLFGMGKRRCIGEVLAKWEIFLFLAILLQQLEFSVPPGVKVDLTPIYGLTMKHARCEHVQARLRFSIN
Kind of series: Luminescent P450-Glo recombinant human CYP1A2 inhibition assay.
From the text: as §1, §2, §3

Series [3] deals with CYP2C19 (Homo sapiens, UniProt P33261). Kind of series: Luminescent P450-Glo recombinant human CYP2C19 inhibition assay.
Chain of CYP2C19 (P33261 whole entry): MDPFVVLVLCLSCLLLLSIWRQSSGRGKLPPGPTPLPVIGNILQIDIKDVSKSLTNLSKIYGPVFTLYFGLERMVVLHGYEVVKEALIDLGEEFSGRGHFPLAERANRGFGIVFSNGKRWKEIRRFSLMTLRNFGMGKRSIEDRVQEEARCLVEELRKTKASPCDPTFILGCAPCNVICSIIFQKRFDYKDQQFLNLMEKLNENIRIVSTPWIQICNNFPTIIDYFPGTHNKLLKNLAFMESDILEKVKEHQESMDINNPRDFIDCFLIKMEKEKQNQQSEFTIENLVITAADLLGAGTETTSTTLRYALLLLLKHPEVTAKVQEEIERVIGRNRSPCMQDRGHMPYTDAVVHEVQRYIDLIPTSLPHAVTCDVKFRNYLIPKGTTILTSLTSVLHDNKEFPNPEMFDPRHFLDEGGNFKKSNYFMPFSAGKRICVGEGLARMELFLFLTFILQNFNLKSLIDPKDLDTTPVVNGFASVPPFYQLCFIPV
From the text: as §1, §2, §3

Series [4] has as its target CYP2D6 (Homo sapiens, UniProt P10635). Kind of series: Luminescent P450-Glo recombinant human CYP2D6 inhibition assay.
From the text: as §1, §2, §3

Series [5] concerns the target CYP3A4 (Homo sapiens, UniProt P08684). Kind of series: Luminescent P450-Glo recombinant human CYP3A4 inhibition assay.
From the text: as §1, §2, §3

Chain of CYP2D6 (P10635 whole entry): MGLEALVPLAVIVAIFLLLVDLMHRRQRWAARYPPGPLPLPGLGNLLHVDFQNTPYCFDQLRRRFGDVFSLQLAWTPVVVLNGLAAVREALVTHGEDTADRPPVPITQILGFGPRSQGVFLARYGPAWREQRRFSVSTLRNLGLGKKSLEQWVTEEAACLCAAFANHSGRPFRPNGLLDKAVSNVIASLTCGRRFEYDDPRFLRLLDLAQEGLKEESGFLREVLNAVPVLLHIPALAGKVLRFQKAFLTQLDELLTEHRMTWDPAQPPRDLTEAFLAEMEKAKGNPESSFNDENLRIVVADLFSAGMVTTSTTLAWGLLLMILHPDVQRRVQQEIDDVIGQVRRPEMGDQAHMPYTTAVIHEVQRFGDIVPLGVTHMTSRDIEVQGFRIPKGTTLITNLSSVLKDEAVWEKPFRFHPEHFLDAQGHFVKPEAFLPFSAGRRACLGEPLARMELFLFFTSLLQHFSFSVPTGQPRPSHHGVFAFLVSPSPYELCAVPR
Chain of CYP2C9 (P11712 whole entry): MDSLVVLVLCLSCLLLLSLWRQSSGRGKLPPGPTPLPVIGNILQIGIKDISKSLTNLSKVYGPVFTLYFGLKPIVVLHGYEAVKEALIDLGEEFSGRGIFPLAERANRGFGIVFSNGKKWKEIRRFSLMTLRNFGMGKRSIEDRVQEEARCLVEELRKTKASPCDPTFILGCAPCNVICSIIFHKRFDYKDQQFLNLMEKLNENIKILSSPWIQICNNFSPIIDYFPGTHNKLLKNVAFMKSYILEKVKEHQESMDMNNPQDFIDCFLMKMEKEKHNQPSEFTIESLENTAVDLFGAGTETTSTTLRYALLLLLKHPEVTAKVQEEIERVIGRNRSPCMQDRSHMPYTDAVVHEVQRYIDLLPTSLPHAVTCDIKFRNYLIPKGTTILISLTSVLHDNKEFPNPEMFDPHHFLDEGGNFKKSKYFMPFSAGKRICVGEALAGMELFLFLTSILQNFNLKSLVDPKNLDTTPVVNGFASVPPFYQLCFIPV
Chain of CYP3A4 (P08684 2-503): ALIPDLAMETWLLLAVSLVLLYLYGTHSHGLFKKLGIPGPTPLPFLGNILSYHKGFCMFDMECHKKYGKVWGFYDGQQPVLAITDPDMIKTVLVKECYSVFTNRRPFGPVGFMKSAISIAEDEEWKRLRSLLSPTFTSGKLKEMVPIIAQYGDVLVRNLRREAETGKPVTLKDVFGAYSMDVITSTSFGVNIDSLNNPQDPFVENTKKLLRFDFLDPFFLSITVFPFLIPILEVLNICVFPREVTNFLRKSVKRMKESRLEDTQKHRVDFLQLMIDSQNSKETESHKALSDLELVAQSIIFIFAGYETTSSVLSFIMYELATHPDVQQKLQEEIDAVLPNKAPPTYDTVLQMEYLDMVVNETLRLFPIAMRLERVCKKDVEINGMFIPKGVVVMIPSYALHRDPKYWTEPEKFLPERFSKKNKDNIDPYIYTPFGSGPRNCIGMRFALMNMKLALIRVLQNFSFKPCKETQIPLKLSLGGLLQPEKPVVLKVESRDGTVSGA

A word on the pIC50: it is the negative decadic logarithm of the IC50, by convention in mol/L. As for `CC(C)=C[C@H]1C[C@](C)(O)[C@@H]2[C@H]3CC[C@@H]4[C@@]5(C)CC[C@H](O[C@@H]6O[C@H](CO)[C@@H](O)[C@H](O[C@@H]7O[C@H](CO)[C@@H](O)[C@H](O)[C@H]7O)[C@H]6O[C@@H]6O[C@@H](CO)[C@H](O)[C@H]6O)C(C)(C)[C@@H]5CC[C@@]4(C)[C@@]34CO[C@@]2(C4)O1` [bacoside A3], the pIC50 in series [1], in series [2], in series [3], in series [4] and in series [5] was under 4.00 throughout. In addition, in series [1] (concentrations up to 100 µM), the “Inhibition of CYP2C9 in words” value is “negligible inhibition”. Also, the “Inhibition of CYP1A2 in words” value in series [2] (concentrations up to 100 µM) was “negligible inhibition”. Besides, the “Inhibition of CYP2C19 in words” value in series [3] (concentrations up to 100 µM) is “negligible inhibition”. In addition, the “Inhibition of CYP2D6 in words” value in series [4] (concentrations up to 100 µM) is “negligible inhibition”. In series [5] (concentrations up to 100 µM), the “Inhibition of CYP3A4 in words” value is recorded as “negligible inhibition”.
As to `CC(C)=C[C@H]1C[C@](C)(O)[C@@H]2[C@H]3CC[C@@H]4[C@@]5(C)CC[C@H](O[C@@H]6OC[C@H](O)[C@H](O[C@@H]7O[C@H](CO)[C@@H](O)[C@H](O)[C@H]7O)[C@H]6O[C@@H]6O[C@@H](CO)[C@H](O)[C@H]6O)C(C)(C)[C@@H]5CC[C@@]4(C)[C@@]34CO[C@@]2(C4)O1` [bacopaside X], the pIC50 in series [1], in series [2], in series [3], in series [4] and in series [5] was under 4.00 each time.
Regarding `CC(C)=CC1COC23CC4(CO2)C(CCC2C5(C)CCC(OC6OC(CO)C(O)C(OC7OC(CO)C(O)C(O)C7O)C6OC6OC(CO)C(O)C6O)C(C)(C)C5CCC24C)C3C1(C)O` (stereo not drawn) [bacopaside II], the pIC50 in series [1], in series [2], in series [3], in series [4] and in series [5] was under 4.00 in each case.
Regarding `CC(C)=CC1COC23CC4(CO2)C(CCC2C5(C)CCC(OC6OCC(O)C(OC7OC(COS(=O)(=O)O)C(O)C(O)C7O)C6OC6OC(CO)C(O)C6O)C(C)(C)C5CCC24C)C3C1(C)O` (stereo not drawn) [bacopaside I], the pIC50 in series [1], in series [2], in series [3], in series [4] and in series [5] was under 4.00 each time.
With `CC(C)=C[C@@H]1CO[C@]23C[C@]4(CO2)[C@H](CC[C@@H]2[C@@]5(C)CC[C@H](O[C@@H]6OC[C@H](O)[C@H](O[C@@H]7O[C@H](CO)[C@@H](O)[C@H](O)[C@H]7O)[C@H]6O[C@@H]6O[C@@H](CO)[C@H](O)[C@H]6O)C(C)(C)[C@@H]5CC[C@]24C)[C@H]3[C@@]1(C)O` [bacopasaponin C], the negative-log IC50 (pIC50) in series [1], in series [2], in series [3], in series [4] and in series [5] was under 4.00 throughout.
